From ChEMBL document CHEMBL4616688, “PROTAC Compounds Targeting TRK for Use in Cancer Therapeutics” (ACS Med Chem Lett, 2020) come the findings set out here.

The IC50 is the midpoint of a concentration-inhibition curve.

This assay concerns KM12. Kind of assay: Antiproliferative activity against human KM12 cells expressing TPM3-TRKA assessed as reduction in cell viability measured after 3 days by Celltiter-Glo assay. The assay is classed as functional, cell-based. Conditions: KM12, 72 h. A general note: ATP-based viability assays read luminescence as a measure of living cells.
For `O=C(CN1CCN(c2cccc(-c3cnc4ccc(N5CCC[C@@H]5c5cccc(F)c5)nn34)n2)CC1)NCCOCCNc1ccc2c(c1)C(=O)N(C1CCC(=O)NC1=O)C2=O` (stereo not given in full), the concentration for half-maximal inhibition (IC50) is 0.9 nM.
The same measure for `O=C1CCC(N2C(=O)c3ccc(NCCN4CCN(c5cccc(-c6cnc7ccc(N8CCC[C@@H]8c8cccc(F)c8)nn67)n5)CC4)cc3C2=O)C(=O)N1` (stereo not given in full): 3.4 nM; for `O=C1CCC(N2C(=O)c3ccc(N4CC(C(=O)N5CCN(c6cccc(-c7cnc8ccc(N9CCC[C@@H]9c9cccc(F)c9)nn78)n6)CC5)C4)cc3C2=O)C(=O)N1` (stereo not given in full): 2 nM.
In the case of `CN1CCN(c2ccc(C(=O)Nc3n[nH]c4ccc(Cc5cc(F)cc(F)c5)cc34)c(NC3CCOCC3)c2)CC1` [ENTRECTINIB] it was 4.3 nM; in that of `O=C1CCC(N2C(=O)c3ccc(NCCCCC(=O)N4CCN(c5cccc(-c6cnc7ccc(N8CCC[C@@H]8c8cccc(F)c8)nn67)n5)CC4)cc3C2=O)C(=O)N1` (stereo not given in full), 0.9 nM.
In the case of `OC1CCN(c2cc(-c3cccc(-c4cnc5ccc(N6CCC[C@@H]6c6cccc(F)c6)nn45)n3)ccn2)CC1` it was 46.7 nM; in that of `O=C(CN1CCN(c2cccc(-c3cnc4ccc(N5CCC[C@@H]5c5cccc(F)c5)nn34)n2)CC1)NCCNc1ccc2c(c1)C(=O)N(C1CCC(=O)NC1=O)C2=O` (stereo not given in full), 0.9 nM.
For the compound `O=C1CCC(N2C(=O)c3cccc(NCCCC(=O)N4CCN(c5ccc(C(=O)Nc6n[nH]c7ccc(Cc8cc(F)cc(F)c8)cc67)c(NC6CCOCC6)c5)CC4)c3C2=O)C(=O)N1` (stereo not given), the IC50 is 1.5 nM.
For `O=C1CCC(N2C(=O)c3ccc(NCCOCCOCCOCCOCCC(=O)N4CCN(c5ccc(C(=O)Nc6n[nH]c7ccc(Cc8cc(F)cc(F)c8)cc67)c(NC6CCOCC6)c5)CC4)cc3C2=O)C(=O)N1` (stereo not given), the half-maximal inhibitory concentration (IC50) stood at 1.6 nM.
In the case of `O=C(CN1CCN(c2cccc(-c3cnc4ccc(N5CCC[C@@H]5c5cccc(F)c5)nn34)n2)CC1)NCCOCCNc1cccc2c1C(=O)N(C1CCC(=O)NC1=O)C2=O` (stereo not given in full) it was 3.8 nM.
